Assay results from patent publication US20170334899A1, “AMINO-SUBSTITUTED ISOTHIAZOLES” (Bayer Pharma Aktiengesellschaft, priority 2014, published 2017).

Key:
CDK2/CycE = biological target: T1, CDK2/CycE (Homo sapiens, UniProt P24941); assay: CDK2/CycE kinase assay (TR-FRET); format: biochemical; details: avg, read-out: CDK2 avg (IC50 [mol/l])
T1 construct: GST; purchased ProQinase GmbH (Freiburg, Germany); host or cells: insect cells (Sf9)
How it was run: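 Read-out is a TR-FRET 665/620 nm emission ratio from EDTA-stopped reactions detected with anti-pRB(pSer807/pSer811), Eu-labelled anti-mouse IgG and streptavidin-XL665, scaled between no-enzyme and uninhibited wells. Reaction: Sf9-expressed GST-CDK2/GST-CycE, 15 min compound preincubation, 10 μM ATP, 0.75 μM biotin-peptide, 25 min, 22° C., pH 8.0 Tris buffer.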

[1] = biological target: T2, catalytic domain of human Bub1 (amino acids 704-1085) (Homo sapiens, UniProt O43683); assay: Bub1 kinase assay (TR-FRET); format: biochemical; details: 10 μM ATP, avg, read-out: Bub1 avg (IC50 [mol/l])
T2 construct: catalytic domain of human Bub1 (amino acids 704-1085); His6 (N); made in house; host or cells: insect cells (Hi5)
How it was run: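 Readout is the 665/620 nm TR-FRET ratio from anti-phosphoserine antibody, Eu-labelled anti-mouse IgG and streptavidin-XL665, scaled between no-enzyme and uninhibited controls. Reaction: 1 μM biotinylated peptide, 10 μM ATP, 60 min, 22 °C, after 15 min compound preincubation with His6-Bub1 (704-1085, insect-expressed, ~200 ng/ml).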

T2 sequence (O43683 704-1085): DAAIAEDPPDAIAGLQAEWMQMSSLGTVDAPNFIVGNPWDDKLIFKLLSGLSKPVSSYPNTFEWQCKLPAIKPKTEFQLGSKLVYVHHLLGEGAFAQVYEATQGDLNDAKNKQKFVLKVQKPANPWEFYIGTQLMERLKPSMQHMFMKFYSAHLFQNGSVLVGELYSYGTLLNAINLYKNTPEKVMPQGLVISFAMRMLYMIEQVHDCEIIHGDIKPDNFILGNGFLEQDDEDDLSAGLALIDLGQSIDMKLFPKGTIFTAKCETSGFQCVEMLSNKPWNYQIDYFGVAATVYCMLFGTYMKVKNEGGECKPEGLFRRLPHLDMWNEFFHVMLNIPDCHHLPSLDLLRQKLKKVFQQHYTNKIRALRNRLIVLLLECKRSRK

SMILES | IC50 (CDK2/CycE) | IC50 [1]
COC(=O)c1cc(NC(=O)c2c(C)nsc2Nc2cnc3ccccc3n2)cc(C(=O)OC)c1 [Example 237, dimethyl 5-({[3-methyl-5-(quinoxalin-2-ylamino)-1,2-thiazol-4-yl]carbonyl}amino)isophthalate] | > 20 µM | > 20 µM
Cc1nsc(Nc2cnc3ccccc3n2)c1C(=O)Nc1ccc(NC2CCCN(C(=O)OC(C)(C)C)C2)nc1 (centres unmarked) [Example 241, tert-butyl 3-{[5-({[3-methyl-5-(quinoxalin-2-ylamino)-1,2-thiazol-4-yl]carbonyl}amino)pyridin-2-yl]amino}piperidine-1-carboxylate] | > 20 µM | > 20 µM
Cc1nsc(Nc2cnc3ccccc3n2)c1C(=O)Nc1ccc(OC2CCNCC2)nc1 [Example 19, 3-Methyl-N-[6-(piperidin-4-yloxy)pyridin-3-yl]-5-(quinoxalin-2-ylamino)-1,2-thiazole-4-carboxamide] | ≥ 20 µM | ≥ 20 µM
Cc1nsc(Nc2cncc(C(F)(F)F)n2)c1C(=O)Nc1ccc(C(=O)NC2CCN(C(=O)OC(C)(C)C)CC2)cc1 [Example 222, tert-butyl 4-[(4-{[(3-methyl-5-{[6-(trifluoromethyl)pyrazin-2-yl]amino}-1,2-thiazol-4-yl)carbonyl]amino}benzoyl)amino] piperidine-1-carboxylate] | > 20 µM | > 20 µM
CNS(=O)(=O)c1ccc(NC(=O)c2c(C)nsc2Nc2cc(C#N)ccn2)cc1 [Example 210, 5-[(4-cyanopyridin-2-yl)amino]-3-methyl-N-[4-(methylsulfamoyl)phenyl]-1,2-thiazole-4-carboxamide] | > 20 µM | > 20 µM
Cc1nsc(Nc2cc(C#N)ccn2)c1C(=O)Nc1cccc(C(=O)OC(C)(C)C)c1 [Example 239, tert-butyl 3-[({5-[(4-cyanopyridin-2-yl)amino]-3-methyl-1,2-thiazol-4-yl}carbonyl)amino]benzoate] | > 20 µM | > 20 µM
COC(=O)CCc1cccc(NC(=O)c2c(C)nsc2Nc2ccc(C#N)cn2)c1 [Example 176, methyl 3-{3-[({5-[(5-cyanopyridin-2-yl)amino]-3-methyl-1,2-thiazol-4-yl}carbonyl)amino]phenyl}propanoate] | > 20 µM | > 20 µM
Cc1nsc(Nc2cnc(C(F)(F)F)cn2)c1C(=O)Nc1ccc(OCCN)c(F)c1 [Example 221, 3-N-[4-(2-aminoethoxy)-3-fluorophenyl]-3-methyl-5-{[5-(trifluoromethyl)pyrazin-2-yl]amino}-1,2-thiazole-4-carboxamide] | > 20 µM | > 20 µM
Cc1nsc(Nc2cncc(C(F)(F)F)n2)c1C(=O)Nc1ccc(OC2CCCN(C(=O)OC(C)(C)C)C2)nc1 (centres unmarked) [Example 189, tert-butyl 3-[(5-{[(3-methyl-5-{[6-(trifluoromethyl)pyrazin-2-yl]amino}-1,2-thiazol-4-yl)carbonyl]amino}pyridin-2-yl)oxy]piperidine-1-carboxylate] | > 20 µM | > 20 µM
Cc1nsc(Nc2cnc3ccccc3n2)c1C(=O)Nc1cccc(NC(=O)C(C)(C)C)c1 [Example 186, N-{3-[(2,2-dimethylpropanoyl)amino]phenyl}-3-methyl-5-(quinoxalin-2-ylamino)-1,2-thiazole-4-carboxamide] | > 20 µM | > 20 µM
Cc1nsc(Nc2cnccn2)c1C(=O)Nc1ccc(C(=O)OC(C)(C)C)cc1 [Example 184, tert-butyl 4-({[3-methyl-5-(pyrazin-2-ylamino)-1,2-thiazol-4-yl]carbonyl}amino)benzoate] | > 20 µM | > 20 µM
Cc1nsc(Nc2ccc(C#N)cn2)c1C(=O)Nc1ccc(OCCC(=O)OC(C)(C)C)nc1 [Example 199, tert-butyl 3-({5-[({5-[(5-cyanopyridin-2-yl)amino]-3-methyl-1,2-thiazol-4-yl}carbonyl)amino]pyridin-2-yl}oxy)propanoate] | > 20 µM | > 20 µM
CNC(=O)c1ccc(NC(=O)c2c(C)nsc2Nc2ccc(C#N)cn2)cc1F [Example 208, 5-[(5-cyanopyridin-2-yl)amino]-N-[3-fluoro-4-(methylcarbamoyl)phenyl]-3-methyl-1,2-thiazole-4-carboxamide] | > 20 µM | > 20 µM
